# In US7160916B2, “Method of increasing bone density or treating osteoporosis” (Yung Shin Pharmaceutical Ind. Co., Ltd., priority 2003, dated 2007):
# How the values were obtained:
# Primary osteoblast cells = assay: Assay of alkaline phosphatase activity in cultured osteoblasts; assay type: cell-based, rat
# Procedure: Primary osteoblast cultures: Primary osteoblast cells were prepared from calvaria of 18-day-old fetal Sprague-Dawley (SD) rats according to the following method: Pregnant rats were put in anesthesia using intraperitoneal injection of trichloroacetaldehyde (200 mg/kg). The calvaria of the fetal rats were then dissected with aseptic technique. Soft tissues were removed under a dissecting microscope. The calvaria were divided into small pieces and then treated with 0.1% collagenase (Sigma Chemical, St. Louis, Mo.) solution for 10 minutes at 37° C. The cells released from the calvariae by two 20-minute sequential collagenase digestions were pooled and filtered through 70 μm nylon filters (Falcon, BD BioSciences, San Jose, Calif.). The cells were then grown on plastic cell culture dishes in 95:5 air-CO2 with Dulbecco's modified Eagle's medium (DMEM) (Gibco, Grand Island, N.Y.) which was supplemented with 20 mM HEPES and 10% heat-inactivated FCS, 2 mM-glutamine, penicillin (100 U/ml) and streptomycin (100 μg/ml) (pH adjusted to 7.6). The cell medium was changed twice a week. Osteoblasts were confirmed by morphology and expression of alkaline phosphatase (ALP). To examine the maturation of osteoblasts, cells were cultured for up to 14 days in a growth medium containing ascorbic acid (50 μg/ml) (Sigma Chemical, St. Louis, Mo.) and β-glycerophosphate (10 mM) (Sigma Chemical, St. Louis, Mo.) and the medium was changed every 3 day. Assay of alkalinephosphatase activity: Cells cultured in 6-well plates in the presence or absence of Indazole 1 were harvested in 1 ml of 0.2% Nonidet P-40 and cell suspension was disrupted by sonication. After centrifugation at 1500 g for 5 min, ALP activity in the supernatant was measured by the method of Lowry et al (1954) J Biol Chem 207:19–37.
# Male SD rats = assay: Local injection into proximal tibia, bone histomorphometry (bone growth); assay type: in vivo, rat; conditions: L-NAME 0.6 nmole/day given with Indazole 1, versus Indazole 1 alone
# Procedure: Assay of bone resorption of osteoclast: Osteoclast precursors were isolated from rat long bones as mentioned above. The cells were re-suspended in a complete DMEM medium and plated into a calcium phosphate apatite-coated 24-well plate, OAAS (Oscotec, OCT USA Inc.) at 1×10^6 cells/0.5 ml/well. The cells were cultured for 5 days in the presence of M-CSF (20 ng/ml) plus sRANKL (50 ng/ml). Indazole 1 was injected daily for additional 3 days in the absence of M-CSF and sRANKL. Culture was terminated on day 8 and the remaining cells in the plate were lysed using 1 N NaOH. Five images per well were obtained using an inverted microscope (200×), and resorbed area was measured using an image analyzer. Local injection Male SD rats weighing 70–88 gm were used. Implantation of a cannula (22G) was done from the posteriolateral side into the proximal tibial metaphysis in both limbs of rats anesthetized with pentobarbital. The cannula had its outer end in the subcutaneous tissue. Indazole 1 was percutaneously injected through the cannula into the proximal tibia once/day for 1 week. The same concentration of DMSO diluted with normal saline was injected into the right side for comparison. On day 14, the rats were sacrificed and tibiae were fixed in 10% formaldehyde for 48 h at 4° C. Bone histomorphometry: After formalin fixation of tibia was completed, the tibiae were then decalcified in 0.5 N hydrochloric acid, dehydrated in an ascending series of ethanol solution and acetone, and embedded in paraffin. Serial sections (5 μm) were cut longitudinally and stained with Mayer's hematoxylin-eosin solution (Yang et al. (1993) Calcif Tissue Int 52:57–61). Images of the growth plate and proximal tibia were photographed using a photoMicroGraphic Digitize integrate System (MGDS; Total-Integra Technology Co., Ltd., Taipei, Taiwan). Bone volume measurements were performed on the whole secondary spongiosa, which is located under the primary spongiosa and characterized by a network of larger trabeculae. Bone volumes were calculated using an image analysis software. All measurements were done in a single-blind fashion. Bone growth: Male young rats (SD) weighing 70–90 gm were divided into six groups. The average weight of the rats in each group was 73.9±1.1 gm. Indazole 1 was dissolved in DMSO and diluted with saline to a final concentration of 10 μM. One of the six groups was a control group, and the other groups were punctuated with a needle cannula alone, injected with a vehicle using a needle cannula (day 1, once), injected with Indazole 1 (day 1, once), injected with a vehicle using a needle cannula (days 1–7, daily), and injected with Indazole 1 (days 1–7, daily), respectively. […] Trabecular bone in the secondary spongiosa increased by 90% after local injection of Indazole 1 for 7 days.
structure (smiles),measurement,setting,value
"COC(=O)[C@@H](N)CCCNC(=N)N[N+](=O)[O-] [L-NAME, N^G-nitro-L-arginine-methylester, reference compound]",effect on the increase of ALP activity by Indazole 1,Primary osteoblast cells; L-NAME 60 μM,antagonized
same,effect on enhancement of bone formation in the secondary spongiosa by Indazole 1,Male SD rats,significantly attenuated
O=c1onc2cnc3ccccc3n12 [ODQ],effect on the increase of ALP activity by Indazole 1,Primary osteoblast cells; ODQ 20 μM,antagonized
COC(=O)[C@@]1(OC)C[C@H]2O[C@]1(C)n1c3ccccc3c3c4c(c5c6ccccc6n2c5c31)C(=O)N(C)C4 [KT5823],effect on the increase of ALP activity by Indazole 1,Primary osteoblast cells; KT5823 2 μM,antagonized
